Broadly, the inhibition is the relative decrease from the control value, in per cent.

Activity calls are given as the source filed them. The rule behind the calls is not given here.

This assay has as its system Trypanosoma cruzi. As to the kind of experiment: Inhibition of recombinant Trypanosoma cruzi trans-sialidase catalytic N-terminal domain preincubated at 1 mM for 10 mins by continuous fluorimetric assay.
On to `COC(=O)c1ccc(O[C@@H]2O[C@H](CO)[C@H](O)[C@H](OCc3nnn[nH]3)[C@H]2O)c([N+](=O)[O-])c1`, for which the inhibition is 18%. Then `Cc1ncc(COP(=O)(O)O)c(C=O)c1O`, with 68%; and `COC(=O)c1ccc(O[C@@H]2O[C@H](CO)[C@H](O)[C@H](OCC(=O)O)[C@H]2O)cc1`, with “inactive”; and `CCCCCCCCO[C@@H]1O[C@H](CO)[C@H](O)[C@H](OC)[C@H]1O`, with 13%.

Consider `COC(=O)c1ccc(O[C@@H]2O[C@H](CO)[C@H](O)[C@H](OCC(=O)O)[C@H]2O)c([N+](=O)[O-])c1`, for which the inhibition was 21%. For the compound `COC(=O)c1ccc(O[C@@H]2O[C@H](CO)[C@H](O)[C@H](OCC(=O)OC(C)(C)C)[C@H]2O)cc1`, the inhibition entry was “inactive”. Turning to `COC(=O)c1ccc(O[C@@H]2O[C@H](CO)[C@H](O)[C@H](OCC(=O)OC(C)(C)C)[C@H]2O)c([N+](=O)[O-])c1`, the inhibition result was “inactive”. Then `COC(=O)c1ccc(O[C@@H]2O[C@H](CO)[C@H](O)[C@H](OCC#N)[C@H]2O)cc1`, with 7%; and `COC(=O)c1ccc(O[C@@H]2O[C@H](CO)[C@H](O)[C@H](O)[C@H]2O)cc1`, with 11%; and `COC(=O)c1ccc(O[C@@H]2O[C@H](CO)[C@H](O)[C@H](OCC#N)[C@H]2O)c([N+](=O)[O-])c1`, with “inactive”. Then `COC(=O)c1ccc(O[C@@H]2O[C@H](CO)[C@H](O)[C@H](OCc3nnn[nH]3)[C@H]2O)cc1`, with “inactive”. To `COC(=O)c1ccc(O[C@@H]2O[C@H](CO)[C@H](O)[C@H](O)[C@H]2O)c([N+](=O)[O-])c1` belongs 16%.

For the compound `COC(=O)c1ccc(O[C@@H]2O[C@H](CO)[C@H](O)[C@H](OC)[C@H]2O)c([N+](=O)[O-])c1`, the inhibition came to 16%.

As for `COC(=O)c1ccc(O[C@@H]2O[C@H](CO)[C@H](O)[C@H](OC)[C@H]2O)cc1`, the inhibition is 7%.

The record behind these values is ChEMBL document CHEMBL3352587.
